Experimental data: the NIST ThermoML archive (doi:10.1016/j.jct.2009.11.003)
Where “and” joins values, the source holds several entries; their conditions need not be identical. Identical values can stand only once. Numbers after ± are expanded uncertainties.

Experiments:
[1] = Crystal, Calculated from knudsen effusion weight loss
[2] = molar enthalpy of vaporization or sublimation; conditions: Crystal, Static calorimetry

Nc1c(Cl)cc([N+](=O)[O-])cc1[N+](=O)[O-] [2-chloro-4,6-dinitrobenzenamine]
Conditions	molar enthalpy [kcal/mol]	vapor or sublimation pressure
[1], 358.1 K	–	0.000105 ± 5e-06 kPa and 0.000103 ± 5e-06 kPa and 0.00011 ± 6e-06 kPa
[1], 360.15 K	–	0.00013 ± 7e-06 kPa and 0.000133 ± 7e-06 kPa and 0.000128 ± 6e-06 kPa
[1], 362.16 K	–	0.000164 ± 8e-06 kPa and 0.000161 ± 8e-06 kPa and 0.000173 ± 9e-06 kPa
[1], 364.12 K	–	0.000202 ± 1e-05 kPa and 0.000198 ± 1e-05 kPa and 0.000197 ± 1e-05 kPa
[1], 366.17 K	–	0.000246 ± 1.2e-05 kPa and 0.000248 ± 1.2e-05 kPa and 0.00024 ± 1.2e-05 kPa
[1], 368.17 K	–	0.000302 ± 1.5e-05 kPa and 0.000297 ± 1.5e-05 kPa and 0.000296 ± 1.5e-05 kPa
[1], 370.11 K	–	0.000361 ± 1.8e-05 kPa and 0.000368 ± 1.8e-05 kPa
[1], 372.08 K	–	0.000455 ± 2.3e-05 kPa and 0.00044 ± 2.2e-05 kPa and 0.000426 ± 2.1e-05 kPa
[1], 374.14 K	–	0.00055 ± 2.8e-05 kPa and 0.000536 ± 2.7e-05 kPa
[1], 376.25 K	–	0.000684 ± 3.4e-05 kPa and 0.000662 ± 3.3e-05 kPa and 0.000663 ± 3.3e-05 kPa
[1], 378.14 K	–	0.000816 ± 4.1e-05 kPa and 0.000824 ± 4.1e-05 kPa and 0.000797 ± 4e-05 kPa
[1], 380.16 K	–	0.000996 ± 5e-05 kPa and 0.000971 ± 4.9e-05 kPa and 0.000963 ± 4.8e-05 kPa
[2], 298.15 K	27.5 ± 0.526	–
[2], 369.13 K	27.3 ± 0.311	–

Nc1c([N+](=O)[O-])cc(Cl)cc1[N+](=O)[O-] [4-chloro-2,6-dinitroaniline]
Conditions	molar enthalpy [kcal/mol]	vapor or sublimation pressure
[1], 335.12 K	–	7.67e-05 ± 3.9e-06 kPa and 7.72e-05 ± 3.9e-06 kPa and 7.84e-05 ± 3.9e-06 kPa
[1], 338.19 K	–	0.00011 ± 6e-06 kPa and 0.000108 ± 5e-06 kPa and 0.000106 ± 5e-06 kPa
[1], 341.17 K	–	0.00015 ± 8e-06 kPa and 0.000145 ± 7e-06 kPa and 0.000146 ± 7e-06 kPa
[1], 344.17 K	–	0.000202 ± 1e-05 kPa and 0.000201 ± 1e-05 kPa and 0.000207 ± 1e-05 kPa
[1], 347.18 K	–	0.000287 ± 1.4e-05 kPa and 0.000284 ± 1.4e-05 kPa and 0.000277 ± 1.4e-05 kPa
[1], 350.12 K	–	0.000388 ± 1.9e-05 kPa and 0.000386 ± 1.9e-05 kPa
[1], 353.12 K	–	0.00052 ± 2.6e-05 kPa and 0.000532 ± 2.7e-05 kPa and 0.000527 ± 2.6e-05 kPa
[1], 356.17 K	–	0.000715 ± 3.6e-05 kPa and 0.000702 ± 3.5e-05 kPa and 0.00071 ± 3.6e-05 kPa
[1], 359.16 K	–	0.000964 ± 4.8e-05 kPa and 0.000935 ± 4.7e-05 kPa and 0.000922 ± 4.6e-05 kPa
[2], 298.15 K	25.1 ± 0.406	–
[2], 347.1 K	25.02 ± 0.239	–
